Measurements taken from publication PMC10610505, “Synthesis and Biological Evaluation of Some New 3-Aryl-2-thioxo-2,3-dihydroquinazolin-4(1H)-ones and 3-Aryl-2-(benzylthio)quinazolin-4(3H)-ones as Antioxidants; COX-2, LDHA, α-Glucosidase and α-Amylase Inhibitors; and Anti-Colon Carcinoma and Apoptosis-Inducing Agents” (Pharmaceuticals, 2023).
Several values for one entry are separate records, joined by “and”; a condition that tells them apart may be missing. Identical values can stand only once. Like-named read-outs stand apart in the source and are kept apart here.

Legend:
[1] = Viability assay (LDH release), HUVEC; format: cell-based, human; settings: human
Procedure: (§1) The samples were diluted in Dulbecco’s Modified Eagle’s Medium, consisting of 10% fetal bovine serum (FBS), added to cells grown and cultured for 24 h in a 5% CO2-humidified incubator at 37 °C. Thereafter, the activity of lactate dehydrogenase released from damaged cells was determined in the collected supernatant aliquots using an ELISA end-point assay (Benchmark Plus, Bio-Rad, CA, USA); 0.1% Triton X-100 in the assay medium and the assay medium only were used as the positive and negative controls, respectively. Cell viability was expressed as a relative percentage of the OD values (at 550 nm) for compound-treated cells (final concentration of 200 µg /mL) and the negative control, which was shown as the mean % ± SD (n = 3). The results of the viability assays for the potential cytotoxic candidates were compared with the % of viable human umbilical vein endothelial cells (HUVEC) at the same concentration. These cells were grown in Dulbecco’s Modified Eagle’s Medium (PAN-Biotech; Barcelona, Spain) containing 10% FBS (Sigma Aldrich; St. Quentin-Fallavier, France), 2 mM Glutamine (Sigma Aldrich), 100 units/mL penicillin and […] streptomycin (Life Technologies; Paisley, UK).

[2] = test system: LoVo human colon carcinoma cells; test: Viability assay (LDH release), LoVo; format: cell-based; settings: Homo sapiens, LoVo; for viability at 200 µg/mL: 48 h, read-out: Mean % of viable cells ± SD, LoVo; for IC50: from concentration–response curves
Procedure: (§2) The anticancer activities of all the synthesized compounds were assessed against two human colon carcinoma cell lines, namely LoVo and HCT-116 (Table 6), via the determination of the mean percents of the viable cancerous cells remaining after being incubated with 200 µg/mL of each test compound for 48 h using LDH assay.
as §1

[3] = DPPH radical scavenging assay; format: biochemical; settings: for Mean IC50 for scavenging initial DPPH radicals: mean ± SD of three replicates; for IC50: mean ± SD, converted from mg/mL, read-out: Mean IC50 for scavenging initial DPPH radicals (converted)
Text: In principle, the antioxidant power of a compound in this assay is correlated to its tendency to reduce the stable, purple-colored DPPH radical through a hydrogen atom transfer (HAT) mechanism and/or a single electron transfer mechanism, thereby converting it to the yellow-colored 2,2-diphenyl-1-picrylhydrazine, whereby this reduction is accompanied by a depletion in the amount of the initial DPPH radicals and a change in the absorbance of the test solution accordingly, which can be detected relative to the blank solution at λ = 517 nm.
The antioxidant potencies of all synthesized compounds were investigated using a 1,1 diphenyl-2-picrylhydrazyl (DPPH) radical scavenging assay according to the protocol described by Bersuder et al.. In brief, a 0.5 mL volume of DPPH ethanolic solution was mixed with an equal volume of each sample concentration (i.e., the test compound or butylated hydroxytoluene, BHT, which was used as the reference antioxidant in the positive control experiment), shaken strongly, and incubated at room temperature for 1 h in darkness. The absorbance of the residual DPPH radicals was measured at λ = 519 nm and compared to the negative control (without the test compound or reference antioxidant). The DPPH radical scavenging power was calculated using the following formula: scavenging efficiency (%) = (1 − Acompound/AControl) × 100, where Acompound and Acontrol are the absorbance of the tested compound and the negative control, respectively. […] Additionally, the ± SD values were calculated from three independent triplicate measurements.

[4] = biological target: purified recombinant human LDHA protein (Homo sapiens, UniProt P00338); test: Lactate dehydrogenase A (LDHA) inhibitory assay; format: biochemical; settings: for Fold change of LDHA inhibition as compared to 0.1 mg/mL: % inhibition at 0.200 mg/mL divided by % inhibition at 0.100 mg/mL; for inhibition at 100 µg/mL: at 0.1 mg/mL; for inhibition at 100 µg/mL / inhibition at 200 µg/mL: read-out: LDHA mean % inhibition ± SD; for inhibition at 200 µg/mL: at 0.2 mg/mL
Procedure: The LDHA inhibitory effectiveness was investigated by measuring the amounts of consumed NADH [73]. […] The fluorescence of NADH, which has an excitation wavelength of 340 nm and an emission wavelength of 460 nm, was detected using a spectrofluorometer. […] The LDHA inhibitory efficiency was expressed as an inhibition percentage, which was determined via a comparison with the negative control experiments.

[5] = test system: HCT-116 human colon carcinoma cells; test: Viability assay (LDH release), HCT-116; format: cell-based; settings: Homo sapiens; for viability at 200 µg/mL: read-out: Mean % of viable cells ± SD, HCT-116; for IC50: HCT-116, from concentration–response curves
Procedure: as §2, §1

α-amylase = test: In vitro α-amylase (AA) inhibition assay; settings: mean ± SD of three replicates; for IC50: read-out: Mean IC50 α-Amylase (AA)
Procedure: Then, 180 µL of Labtest (the amylase substrate) was added and the samples were incubated for 8 min, followed by measuring the first reaction at 620 nm to obtain (X1). Afterwards, the reaction mixture was incubated for an additional 5 min at 37 °C; then, the second reaction was measured to obtain the final reading (X2). […] The results were expressed as IC50 µg/mL (as well as µM) and were determined from the standard curves.

COX-2 = biological target: T1, COX-2 (Homo sapiens, UniProt P35354); test: COX-2 inhibitory screening assay (Cayman kit); format: biochemical; settings: for Increase in COX-2 inhibitory efficiency by duplicating the concentration: % inhibition at 0.200 mg/mL divided by % inhibition at 0.100 mg/mL; for inhibition at 100 µg/mL: at 0.100 mg/mL; for inhibition at 100 µg/mL / inhibition at 200 µg/mL: read-out: COX-2 mean % inhibition ± SD; for inhibition at 200 µg/mL: at 0.200 mg/mL
T1 construct: purchased Cayman Chemical Company 701080
T1 sequence (P35354 18-604): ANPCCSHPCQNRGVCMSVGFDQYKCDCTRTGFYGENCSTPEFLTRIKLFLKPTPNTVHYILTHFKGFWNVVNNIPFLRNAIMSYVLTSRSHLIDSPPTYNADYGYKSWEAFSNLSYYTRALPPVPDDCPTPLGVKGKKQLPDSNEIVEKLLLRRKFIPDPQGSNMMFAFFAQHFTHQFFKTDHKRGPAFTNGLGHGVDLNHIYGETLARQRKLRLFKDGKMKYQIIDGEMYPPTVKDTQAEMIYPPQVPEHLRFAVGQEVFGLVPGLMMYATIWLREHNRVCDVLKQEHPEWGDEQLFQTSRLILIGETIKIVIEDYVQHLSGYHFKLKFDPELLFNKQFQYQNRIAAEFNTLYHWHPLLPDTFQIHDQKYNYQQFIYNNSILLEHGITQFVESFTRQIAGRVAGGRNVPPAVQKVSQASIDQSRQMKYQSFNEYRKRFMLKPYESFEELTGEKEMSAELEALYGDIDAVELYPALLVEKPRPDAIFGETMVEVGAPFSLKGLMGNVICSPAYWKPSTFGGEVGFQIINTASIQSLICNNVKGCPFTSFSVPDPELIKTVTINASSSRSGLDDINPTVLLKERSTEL
Procedure: Each compound of the two series, 3a–h and 5a–h, was resuspended in 100% DMSO at a final concentration of 10 mg/mL. […] Briefly, 10 µL of the tested compound was added to a mixture of the reaction buffer solution (160 µL of 0.1 M Tris-HCl, pH 8.0, in the presence of 2 mM phenol and 5 mM EDTA), COX-2 (10 µL) and heme (10 µL). After a 10 min incubation at 37 °C, the reaction was started by adding arachidonic acid (10 µL), rapidly mixed and kept at 37 °C for 2 min. PGF2α generated via PGH2 reduction with stannous chloride (30 µL) was incubated at room temperature for 5 min. The PGF2α amount was then determined via an enzyme immunoassay. Prior to incubation with the COX-2 reaction (at room temperature 18 h), the 96-well plate was previously coated with a mouse anti-rabbit monoclonal antibody. Unbound reagents were removed by washing the plate followed by adding Ellman’s reagent to the well. The reaction product displaying a distinct yellow color was measured at 410 nm using a UV microplate reader. The % inhibition was calculated by comparing the PGF2α produced in the compound-treated samples with a control sample, using the following equation: % inhibition is equal to [([PGF2α]control − [PGF2α]sample) /[PGF2α ]control ] × 100. […] The COX-2 inhibitory efficiency was expressed as an inhibition percentage, which was determined via a comparison with the negative control experiments.

[6] = human umbilical vein endothelial cells (HUVEC), 200 µg/mL, read-out: Mean % of viable cells ± SD, HUVEC

SMILES	viability at 200 µg/mL [1]	viability at 200 µg/mL [2]	IC50 [2]	Mean IC50 for scavenging initial DPPH radicals [3]	IC50 [3]	Fold change of LDHA inhibition as compared to 0.1 mg/mL [4]	inhibition at 100 µg/mL [4]	inhibition at 200 µg/mL [4]	viability at 200 µg/mL ([5]; HCT-116, 48 h)	IC50 [5]	Mean IC50 α-Amylase (AA) (α-amylase)	IC50 (α-amylase)	Increase in COX-2 inhibitory efficiency by duplicating the concentration (COX-2)	inhibition at 100 µg/mL (COX-2)	inhibition at 200 µg/mL (COX-2)	viability at 200 µg/mL [1, 6]	IC50 ([4]; mean ± SD of three replicates)	IC50 (COX-2; mean ± SD of three replicates)	viability at 200 µg/mL ([2]; 200 µg/mL)	viability at 200 µg/mL ([5]; HCT-116, 200 µg/mL, 48 h)
COc1cc2[nH]c(=S)n(-c3cccc(C(F)(F)F)c3)c(=O)c2cc1OC [Compound 3c, 6,7-Dimethoxy-2-thioxo-3-(3-trifluoromethyl-phenyl)-2,3-dihydro-1H-quinazolin-4-one]	99.67 ± 0.577%	47.3 ± 2.52%	275 µg/mL and 720 µM	100 ± 14 µg/mL	262 µM	0.20 fold	17.8 ± 1.56%	30.8 ± 1.77%	65 ± 3.61%	281 µg/mL and 735 µM	92.000 ± 3.000 µg/mL	241 µM	2.05 fold	9.85 ± 1.63%	20.2 ± 1.13%					
O=c1c2cc(Br)ccc2[nH]c(=S)n1-c1ccc([N+](=O)[O-])cc1 [Compound 3g, 6-Bromo-3-(4-nitro-phenyl)-2-thioxo-2,3-dihydro-1H-quinazolin-4-one]		55.7 ± 3.06%	222 µg/mL and 586 µM	62.5 ± 2 µg/mL	165 µM		68.2 ± 4.6%	100%	42.3 ± 2.52%	168 µg/mL and 444 µM	179.333 ± 7.768 µg/mL	474 µM	1.65 fold	60 ± 2.83%	98.9 ± 1.56%	98.7 ± 1.16%	242 µM	252 µM		
O=c1c2cc(Br)ccc2nc(SCc2ccc(Cl)cc2)n1-c1cccc(C(F)(F)F)c1 [Compound 5b, 2-(4-Chloro-benzylsulfanyl)-6-bromo-3-(3-trifluoromethyl-phenyl)-3H-quinazolin-4-one]			161 µg/mL and 306 µM	167 ± 10 µg/mL	318 µM	1.55 fold	14.5 ± 1.13%	22.5 ± 1.7%		246 µg/mL and 468 µM	162.000 ± 5.568 µg/mL	308 µM	2.11 fold	9.25 ± 1.77%	19.5 ± 2.12%	96.33 ± 0.577%			37.7 ± 2.52%	60.3 ± 2.52%
COc1ccc(Br)c(CSc2nc3ccc(Cl)cc3c(=O)n2-c2ccc([N+](=O)[O-])cc2)c1 [Compound 5f, 2-(2-Bromo-5-methoxy-benzylsulfanyl)-6-chloro-3-(4-nitro-phenyl)-3H-quinazolin-4-one]				241 ± 13 µg/mL	452 µM	1.60 fold	31.9 ± 2.48%	51 ± 3.61%			106.667 ± 5.033 µg/mL	200 µM	1.80 fold	28.9 ± 2.69%	52 ± 2.83%				84.3 ± 3.51%	76 ± 1.73%
O=c1c2cc(Br)ccc2nc(SCc2cccc([N+](=O)[O-])c2)n1-c1ccc([N+](=O)[O-])cc1 [Compound 5g, 2-(3-Nitro-benzylsulfanyl)-6-bromo-3-(4-nitro-phenyl)-3H-quinazolin-4-one]		74.7 ± 2.52%		200 ± 14 µg/mL	390 µM	1.75 fold	15.8 ± 2.05%	27.7 ± 2.55%	66.3 ± 3.06%		339.000 ± 4.000 µg/mL	660 µM	1.83 fold	14.2 ± 1.77%	26 ± 2.83%					
COc1cc2nc(SCc3ccc(Cl)cc3)n(-c3ccc([N+](=O)[O-])cc3)c(=O)c2cc1OC [Compound 5h, 2-(4-Chloro-benzylsulfanyl)-6,7-dimethoxy-3-(4-nitro-phenyl)-3H-quinazolin-4-one]				364 ± 20 µg/mL	752 µM	1.42 fold	15.3 ± 1.2%	21.8 ± 1.34%			117.667 ± 3.055 µg/mL	243 µM	2.58 fold	11.2 ± 0.99%	28.9 ± 0.283%				81.7 ± 3.06%	91 ± 2.65%
